Laboratory results from paper PMC6095874, “Discovery of cationic nonribosomal peptides as Gram-negative antibiotics through global genome mining” (Nature Communications, 2018).
Converted amounts (≈) assume the structure as drawn. Where a SMILES comes first, the peptide text is derived from it. Bridges are numbered along the chain shown (N, C = ends). [ ]: non-standard residue; d: D form. The star is where a group is joined. ξ: configuration not given here. Hexanoyl(4ξ-Me) = CCC(C)CCC(=O)*; dOrn = NCCC[C@@H](N)C(=O)O; Orn = NCCC[C@H](N)C(=O)O

Key:
[1] = tested on: Escherichia coli ATCC 25922; experiment: microbe, parasite or virus in culture; format: cell-based; settings: Supplementary Table 1; Ec = Escherichia coli ATCC 25922
Experimental: (§1) MIC was determined by broth microdilution according to CLSI guidelines. The test medium for most species was Mueller–Hinton broth (MHB). Bacteria were grown overnight to early stationary phase and adjusted in MHB to 5.0 × 10^5 c.f.u. mL^−1 in the wells of 96-well microtiter plates (Falcon® 96-Well Flat-Bottom Microplate, Tissue Culture-Treated), mixed with varying concentrations of test compounds and incubated at 37 °C for 24 h. Cell growth was evaluated by measuring the optical density at 595 nm (Thermo Scientific Multiskan FC multiplate photometer) (Waltham, MA, USA), and the MIC was defined as the lowest compound concentration at which no bacterial growth was observed. MHBs containing 10% fetal bovine serum (Gibco), 21 mM MgCl, or 1.0 mg mL^−1 LPS (lipopolysaccharides from E. coli O55:B5, Sigma-Aldrich) was used to test their inhibitory effects.

Candida albicans = format: cell-based; settings: 24 h
E. coli = experiment: Lysis assay; format: cell-based, Escherichia coli; settings: ten times the MIC, culture OD600 = 1.0, 24 h
Experimental: An overnight culture of E. coli TOP10 cells was diluted 1:10,000 in MHB and incubated at 37 °C with agitation at 180 rpm for 2 h (early exponential). The bacteria were then challenged with brevicidine (20 μg mL^−1), laterocidine (20 μg mL^−1), or polymyxin B (10 μg mL^−1) at ten times the MIC at room temperature without shaking. An untreated sample of cells was used as a negative control. At intervals, 10 μL aliquots were removed, centrifuged at 10,000 × g for 1 min and resuspended in 1.0 mL of sterile PBS. Tenfold serially diluted suspensions were plated on MHB agar plates and incubated at 37 °C overnight. Colonies were counted and the number of c.f.u. per mL was calculated. For analysis of lysis, 300 μL of culture (OD600 = 1.0) were treated with antibiotics at ten times the MIC for 24 h. Experiments were performed in triplicate.

[2] = tested on: Colistin-resistant E. coli (E. coli ATCC 25922 carrying mcr-1); experiment: MIC by broth microdilution; format: cell-based, Escherichia coli; settings: MHB, 37 °C, 24 h
Experimental: as §1

E. coli ATCC 25922 = experiment: Neutropenic mouse thigh infection model; format: in vivo
Experimental: Given the low risk of resistance and the attractive mode of action of 1–2, an animal efficacy study was then performed in a mouse thigh model. Mice were intramuscularly infected with 1.50 × 10^6 c.f.u. of E. coli ATCC 25922. Two hours post infection, brevicidine (30 mg kg^−1) or laterocidine (15 mg kg^−1) was subcutaneously injected at two doses. […] In particular, compound 1 was highly efficacious in mice infected with E. coli and caused a 5 log10 reduction in c.f.u. in the thigh compared to the vehicle control after 24 h (Fig. 4f).
In vivo activities of brevicidine and laterocidine were tested using the mouse thigh infection model. Animal studies were performed by Pharmacology Discovery Services Taiwan Ltd. in general accordance with standard guidelines on animal welfare[38] in an AAALAC-accredited facility. The protocol was reviewed and approved by the Institutional Animal Care and Use Committee. Groups of five female-specific pathogen-free ICR (CD-1) mice weighing 22 ± 2 g (~5 weeks of age) were used. Animals were immunosuppressed with two intraperitoneal injections of cyclophosphamide, the first at 150 mg kg^−1 4 days before infection (day −4) and the second at 100 mg kg^−1 1 day before infection (day −1). On day 0, animals were inoculated intramuscularly (0.1 mL per thigh) in the right thigh with an E. coli ATCC 25922 suspension. Vehicle (10% DMSO, 1% Tween 80, 0.9% NaCl) and antibiotics were then subcutaneously injected 2 and 8 h later. Due to the limited availability of compounds 1–2, only one concentration of 1 (30 mg kg^−1) or 2 (15 mg kg^−1) was used in the present study. Precisely 26 h after inoculation, animals were euthanized by CO2 asphyxiation before their right thigh muscles were harvested. The removed muscles were homogenized in 5 mL of PBS, pH 7.4, with a Polytron homogenizer. Homogenates in the amount of 0.1 mL were used for serial tenfold dilutions and plated onto a nutrient agar medium for colony count (in c.f.u. g^−1) determination. No randomization or blinding was necessary for the animal infection models, and no samples were excluded.

[3] = tested on: K. pneumoniae NRRL-B-3521; format: cell-based, Klebsiella pneumoniae; settings: NRRL-B-3521, 24 h
Experimental: as §1

**Q.** `CCC(C)CCC(=O)N[C@H](CC(N)=O)C(=O)N[C@H](Cc1ccc(O)cc1)C(=O)N[C@H](Cc1c[nH]c2ccccc12)C(=O)N[C@H](CCCN)C(=O)N[C@@H](CCCN)C(=O)NCC(=O)N[C@H](CCCN)C(=O)N[C@@H](Cc1c[nH]c2ccccc12)C(=O)N[C@@H]1C(=O)N[C@@H]([C@@H](C)CC)C(=O)NCC(=O)N[C@@H](CO)C(=O)O[C@@H]1C` (stereo partly shown) [Compound 1, brevicidine] ({Hexanoyl(4ξ-Me)}-[dN][dY][dW][dOrn][Orn]G[dOrn]WTIGS; ester 9-C) was tested. Which “MIC, Ec” value [1] did it give?
**A.** Its value is 2 µg/mL (≈ 1.32 µM).

**Q.** And the MIC (Candida albicans)?
**A.** Its MIC is >64 µg/mL.

**Q.** What about the “lysis of E. coli cells” value (E. coli) of the same compound?
**A.** Its value is “completely lysed”.

**Q.** What about the MIC [2] of the same compound?
**A.** The MIC was 2 µg/mL (≈ 1.32 µM).

**Q.** And the “reduction in c.f.u. in the thigh compared to the vehicle control” value (E. coli ATCC 25922; 30 mg kg^−1 subcutaneous at 2 and 8 h post infection, neutropenic ICR mice (n = 5), after 24 h)?
**A.** Its value is 5 log10.

**Q.** What about the “viable bacteria in thigh” value (E. coli ATCC 25922; brevicidine 30 mg kg^−1 twice s.c., five mice, after 26 h, Mann–Whitney P < 0.01) of the same compound?
**A.** The value was “reduced number of viable bacteria”.

**Q.** And the MIC [3]?
**A.** Its MIC is 4 µg/mL (≈ 2.63 µM).
